# Values joined by “and” are separate entries in the source; they are usually repeats but may differ in a detail not shown here. Equal values may be shown once.
# Key:
# [1] = molecular target: T1, FLT-3 kinase domain recombinant protein (Homo sapiens, UniProt P36888); assay: Inhibition rate on FLT3 kinase (ELISA); type: biochemical; conditions: two values per compound; for inhibition at 0.01 µM / inhibition at 0.1 µM / inhibition at 1 µM: read-out: Inhibition rate (%) against receptor tyrosine kinase FLT-3
# T1 construct: 50 μL FLT-3 kinase domain recombinant protein diluted with reaction buffer to initiate the reaction
# T1 sequence (P36888 610-943 limits assumed): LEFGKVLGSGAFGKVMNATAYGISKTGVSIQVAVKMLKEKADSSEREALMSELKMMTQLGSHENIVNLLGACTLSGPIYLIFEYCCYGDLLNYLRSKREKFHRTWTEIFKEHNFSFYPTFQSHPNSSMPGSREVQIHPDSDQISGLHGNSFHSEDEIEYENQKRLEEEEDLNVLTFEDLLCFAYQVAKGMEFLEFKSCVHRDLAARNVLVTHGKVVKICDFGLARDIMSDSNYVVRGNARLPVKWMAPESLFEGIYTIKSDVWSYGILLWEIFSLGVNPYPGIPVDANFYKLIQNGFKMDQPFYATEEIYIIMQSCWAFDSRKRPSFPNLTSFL
# Experimental: Conventional enzyme-linked immunosorbent assay (ELISA) method is used, and the specific steps are as follows
# 12,000 g of compounds were centrifuged for 5 min, DMSO was added to make a 10^−2M stock solution, vortexed uniformly and sonicated for 10 min for standby application, and stored at −40° C. The compounds were diluted from the stock solution with DMSO to 100 times the concentration to be tested (concentration of DMSO in the system being 1%) during the test.
# 1. The enzyme reaction substrate Poly (Glu, Tyr) 4:1 was diluted to 20 μg/mL with potassium-free PBS (10 mM sodium phosphate buffer, 150 mM NaCl, pH 7.2-7.4), the ELISA plate was coated with same in 125 μL/well, and reacted at 37° C. for 12-16 hours, the liquid in wells was discarded, the plate was washed three times, for 5 minutes each time, with T-PBS (potassium-free PBS with 0.1% Tween-20, 200 μL/well), and the ELISA plate was dried in an oven at 37° C. for 1-2 hours.
# 2. To each well were added 49 μL of ATP solution diluted with reaction buffer (50 mM HEPES pH 7.4, 50 mM MgCl2, 0.5 mM MnCl2, 0.2 mM Na3VO4, 1 mM DTT), 1 μL of compounds to be tested, and 50 μL FLT-3 kinase domain recombinant protein diluted with reaction buffer to initiate the reaction (two ATP-free control wells are required for each experiment). Subject to a shaker (100 rpm) at 37° C. and reacted for 1 hour. The liquid in wells was discarded, and the plate was washed three times with T-PBS.
# (§1) 3. Antibody PY99 diluent (the antibody was diluted in 1:500 with T-PBS which contains 5 mg/mL BSA) was added in 100 μL/well, subjected same to a shaker at 37° C. and reacted for 0.5 hour. The liquid in wells was discarded, and the plate was washed three times with T-PBS.
# as §1, with “4. Horseradish peroxidase labeled goat anti-mouse secondary antibody” for “3. Antibody PY99”, “1:2000” for “1:500”, “mg/ml” for “mg/mL”
# 5. 2 mg/ml of OPD developing solution (diluted with 0.1 M citric acid-sodium citrate buffer which contains 0.03% H2O2 (pH=5.4)) was added in 100 μL/well, and reacted at 25° C. in the dark for 1-10 minutes.
# 6. 2 M H2SO4 was added in 50 μL/well to stop the reaction, and the reading from the wavelength-adjustable microwell plate ELIASA VERSAmax was performed with a wavelength of 490 nm.
# AXL kinase = molecular target: T2, AXL kinase (Homo sapiens, UniProt P30530); assay: IC50 test on AXL kinase (Z′-LYTE FRET kinase activity detection); type: biochemical; conditions: for IC50: Z′-LYTE FRET peptide assay, 1 h reaction; for inhibitory activity on AXL kinase: competitive experiment with ATP, in words
# T2 construct: purchased Invitrogen PV4803
# T2 sequence (P30530 26-894): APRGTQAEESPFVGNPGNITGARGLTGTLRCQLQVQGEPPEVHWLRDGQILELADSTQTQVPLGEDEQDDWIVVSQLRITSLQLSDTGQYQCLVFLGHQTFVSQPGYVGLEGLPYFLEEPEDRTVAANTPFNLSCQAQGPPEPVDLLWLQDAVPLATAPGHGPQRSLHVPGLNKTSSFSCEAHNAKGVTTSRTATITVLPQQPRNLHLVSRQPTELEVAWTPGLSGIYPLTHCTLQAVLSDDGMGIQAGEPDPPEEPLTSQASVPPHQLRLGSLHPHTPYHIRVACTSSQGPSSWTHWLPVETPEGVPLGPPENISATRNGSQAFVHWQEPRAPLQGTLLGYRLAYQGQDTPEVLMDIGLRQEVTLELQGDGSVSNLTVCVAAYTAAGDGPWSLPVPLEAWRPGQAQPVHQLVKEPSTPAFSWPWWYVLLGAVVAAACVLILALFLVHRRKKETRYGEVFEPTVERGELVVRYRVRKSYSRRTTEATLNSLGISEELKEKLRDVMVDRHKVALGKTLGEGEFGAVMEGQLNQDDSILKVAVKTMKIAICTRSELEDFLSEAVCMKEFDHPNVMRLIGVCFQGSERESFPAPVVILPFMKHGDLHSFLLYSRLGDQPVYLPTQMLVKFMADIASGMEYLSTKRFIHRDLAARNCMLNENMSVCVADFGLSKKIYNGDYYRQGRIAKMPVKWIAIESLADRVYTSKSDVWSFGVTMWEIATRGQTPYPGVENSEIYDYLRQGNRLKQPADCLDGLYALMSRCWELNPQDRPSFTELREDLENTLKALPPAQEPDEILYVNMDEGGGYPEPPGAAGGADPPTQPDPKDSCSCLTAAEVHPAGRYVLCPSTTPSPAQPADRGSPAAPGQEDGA
# Text: Kinase activity detection: The activity of compounds on kinases was detected by a secondary reaction which used the Z′-LYTE™ technique (a detection using fluorescence, enzyme coupling, and based on differences in susceptibility of phosphorylated and non-phosphorylated polypeptides to proteolytic cleavage), followed the fluorescence resonance energy transfer (FRET) principle, and used Z′-LYTE™ FRET peptide substrates (Invitrogen, Z′-LYTE™ KINASE ASSAY KIT—TYR 2 PEPTIDE, PV3191). AXL kinase (invitrogen, PV4803) was diluted stepwise, FRET peptide was then added, followed by ATP, then by compounds at different concentrations, reacted for 1 h, site-specific proteases were then added to recognize and cleave non-phosphorylated FRET peptides, reacted for 1 h, and […] at 445 nm and 520 nm were detected using excitation wavelength of 400 nm.
compound,measurement,setting,value
"6-ethyl-N-(3-fluorophenyl-1H-pyrrolo[2,3-d]pyridin-4-yl)oxy)phenyl)-1,2-dimethyl-4-oxo-1,4-dihydroquinoline-3-carboxamide [TL4800172]",Inhibition rate (%) against receptor tyrosine kinase FLT-3,"[1]; compound 10 nM, 0.01 µM",63.7% and 55.0%
same,Inhibition rate (%) against receptor tyrosine kinase FLT-3,"[1]; compound 100 nM, 0.1 µM",74.9% and 67.8%
same,Inhibition rate (%) against receptor tyrosine kinase FLT-3,"[1]; compound 1000 nM, 1 µM",85.5% and 72.0%
same,IC50,AXL kinase,29.8 nM
same,inhibitory activity on AXL kinase,AXL kinase,strong inhibitory activity
"CCc1ccc2c(c1)c(=O)c(C(=O)Nc1ccc(Oc3ncnc4[nH]cc(-c5ccc(OC)cc5)c34)c(F)c1)c(C)n2C [GDL5000037, 6-ethyl-N-(3-fluoro-4-(5-(4-methoxyphenyl)-7H-pyrrolo[2,3-d]pyrimidin-4-yloxy)phenyl)-1,2-dimethyl-4-oxo-1,4-dihydroquinoline-3-carboxamide]",Inhibition rate (%) against receptor tyrosine kinase FLT-3,"[1]; compound 10 nM, 0.01 µM",59.8%
same,inhibition at 0.01 µM,[1]; compound 10 nM,65.3%
same,Inhibition rate (%) against receptor tyrosine kinase FLT-3,"[1]; compound 100 nM, 0.1 µM",66.5%
same,inhibition at 0.1 µM,[1]; compound 100 nM,74.3%
same,Inhibition rate (%) against receptor tyrosine kinase FLT-3,"[1]; compound 1000 nM, 1 µM",91.6%
same,inhibition at 1 µM,[1]; compound 1000 nM,100%
same,IC50,AXL kinase,16 nM
same,inhibitory activity on AXL kinase,AXL kinase,strong inhibitory activity
"CCc1ccc2c(c1)c(=O)c(C(=O)Nc1ccc(Oc3ncnc4[nH]cc(-c5cnn(C)c5)c34)c(F)c1)c(C)n2C [GDL5000038, 6-ethyl-N-(3-fluoro-4-(5-(1-methyl-1H-pyrazol-4-yl)-7H-pyrrolo[2,3-d]pyrimidin-4-yloxy)phenyl)-1,2-dimethyl-4-oxo-1,4-dihydroquinoline-3-carboxamide]",Inhibition rate (%) against receptor tyrosine kinase FLT-3,"[1]; compound 10 nM, 0.01 µM",55.0%
same,inhibition at 0.01 µM,[1]; compound 10 nM,58.3%
same,Inhibition rate (%) against receptor tyrosine kinase FLT-3,"[1]; compound 100 nM, 0.1 µM",73.0%
same,inhibition at 0.1 µM,[1]; compound 100 nM,80.7%
same,Inhibition rate (%) against receptor tyrosine kinase FLT-3,"[1]; compound 1000 nM, 1 µM",95.9%
same,inhibition at 1 µM,[1]; compound 1000 nM,98.2%
same,IC50,AXL kinase,34 nM
"CCc1ccc2c(c1)c(=O)c(C(=O)Nc1ccc(Oc3ccnc(N)c3Cl)c(F)c1)c(C)n2C [GDL5000059, N-(4-((2-amino-3-chloropyridin-4-yl)oxy)-3-fluorophenyl)-6-ethyl-1,2-dimethyl-4-oxo-1,4-dihydroquinoline-3-carboxamide]",Inhibition rate (%) against receptor tyrosine kinase FLT-3,"[1]; compound 10 nM, 0.01 µM",52.7%
same,inhibition at 0.01 µM,[1]; compound 10 nM,55.9%
same,Inhibition rate (%) against receptor tyrosine kinase FLT-3,"[1]; compound 100 nM, 0.1 µM",63.8%
same,inhibition at 0.1 µM,[1]; compound 100 nM,67.8%
same,Inhibition rate (%) against receptor tyrosine kinase FLT-3,"[1]; compound 1000 nM, 1 µM",82.3%
same,inhibition at 1 µM,[1]; compound 1000 nM,88.7%
same,IC50,AXL kinase,72 nM
"COc1cc2ncnc(Oc3ccc(NC(=O)c4cn(C5CC5)c5cc(N6CCNCC6)c(F)cc5c4=O)cc3F)c2cc1OC [GDL5000110, 1-cyclopropyl-N-(4-(6,7-dimethoxyquinazolin-4-yloxy)-3-fluorophenyl)-6-fluoro-4-oxo-7-(piperazin-1-yl)-1,4-dihydroquinoline-3-carboxamide]",Inhibition rate (%) against receptor tyrosine kinase FLT-3,"[1]; compound 10 nM, 0.01 µM",49.2%
same,inhibition at 0.01 µM,[1]; compound 10 nM,48.5%
same,Inhibition rate (%) against receptor tyrosine kinase FLT-3,"[1]; compound 100 nM, 0.1 µM",51.8%
same,inhibition at 0.1 µM,[1]; compound 100 nM,50.3%
same,Inhibition rate (%) against receptor tyrosine kinase FLT-3,"[1]; compound 1000 nM, 1 µM",81.2%
same,inhibition at 1 µM,[1]; compound 1000 nM,83.5%
same,IC50,AXL kinase,20 nM
"Cc1c(C(=O)Nc2ccc(Oc3ncnc4[nH]cc(-c5ccccc5)c34)c(F)c2)c(=O)c2cc(F)ccc2n1C [TL50087, 6-fluoro-N-(3-fluoro-4-(5-phenyl-7H-pyrrolo[2,3-d]pyrimidin-4-yloxy)phenyl)-1,2-dimethyl-4-oxo-1,4-hydroquinoline-3-carboxamide]",Inhibition rate (%) against receptor tyrosine kinase FLT-3,"[1]; compound 10 nM, 0.01 µM",41.8%
same,inhibition at 0.01 µM,[1]; compound 10 nM,46.1%
same,Inhibition rate (%) against receptor tyrosine kinase FLT-3,"[1]; compound 100 nM, 0.1 µM",45.8%
same,inhibition at 0.1 µM,[1]; compound 100 nM,47.4%
same,Inhibition rate (%) against receptor tyrosine kinase FLT-3,"[1]; compound 1000 nM, 1 µM",67.2%
same,inhibition at 1 µM,[1]; compound 1000 nM,84%
same,IC50,AXL kinase,> 10000 nM
"Cc1c(C(=O)Nc2ccc(Oc3ncnc4[nH]cc(-c5ccccc5)c34)c(F)c2)c(=O)c2cc(C(F)(F)F)ccc2n1C [TL50121, N-(3-fluoro-4-((5-phenyl-7H-pyrrolo[2,3-d]pyrimidin-4-yl)oxy)phenyl)-1,2-dimethyl-4-oxo-6-(trifluoromethyl)-1,4-dihydroquinoline-3-carboxamide]",Inhibition rate (%) against receptor tyrosine kinase FLT-3,"[1]; compound 10 nM, 0.01 µM",61.6%
same,inhibition at 0.01 µM,[1]; compound 10 nM,58.2%
same,Inhibition rate (%) against receptor tyrosine kinase FLT-3,"[1]; compound 100 nM, 0.1 µM",63.3%
same,inhibition at 0.1 µM,[1]; compound 100 nM,66.7%
same,Inhibition rate (%) against receptor tyrosine kinase FLT-3,"[1]; compound 1000 nM, 1 µM",77.6%
same,inhibition at 1 µM,[1]; compound 1000 nM,84.4%
same,IC50,AXL kinase,153 nM
"Cc1c(C(=O)Nc2ccc(Oc3ncnc4[nH]cc(-c5ccccc5)c34)c(F)c2)c(=O)c2cc(C(C)C)ccc2n1C [TL50172, N-(3-fluoro-4-(5-phenyl-7H-pyrrolo[2,3-d]pyrimidin-4-yloxy)phenyl)-6-isopropyl-1,2-dimethyl-4-oxo-1,4-dihydroquinoline-3-carboxamide]",Inhibition rate (%) against receptor tyrosine kinase FLT-3,"[1]; compound 10 nM, 0.01 µM",54.2%
same,inhibition at 0.01 µM,[1]; compound 10 nM,59.4%
same,Inhibition rate (%) against receptor tyrosine kinase FLT-3,"[1]; compound 100 nM, 0.1 µM",72.9%
same,inhibition at 0.1 µM,[1]; compound 100 nM,62.6%
same,Inhibition rate (%) against receptor tyrosine kinase FLT-3,"[1]; compound 1000 nM, 1 µM",84.6%
same,inhibition at 1 µM,[1]; compound 1000 nM,81.8%
same,IC50,AXL kinase,26 nM
"CCc1ccc2c(c1)c(=O)c(C(=O)Nc1ccc(Oc3ncnc4cc(OCCCN(C)C)c(OC)cc34)c(F)c1)c(C)n2C [TL4830076, N-(4-(7-(3-(dimethylamino)propoxy)-6-methoxyquinazolin-4-yloxy)-3-fluorophenyl)-6-ethyl-1,2-dimethyl-4-oxo-1,4-dihydroquinoline-3-carboxamide]",IC50,AXL kinase,1.1 nM
